Series [1] in a line: Pharmacokinetic (PK) studies in mini-pig, i.v. The class given is in vivo. The conditions noted are these: i.v. 5 nmol/kg, female Göttingen mini-pigs, harmonic mean. How it is done: The purpose of this study is to determine the protraction in vivo of a number of CCK derivatives of the invention after intravenous (i.v.) administration to mini-pigs, i.e. the prolongation of their time in the body and thereby their time of action. This was done in pharmacokinetic (PK) studies, where the terminal half-life of the derivative in question was determined. By terminal half-life is generally meant the period of time it takes to halve a certain plasma concentration, measured after the initial distribution phase.
The derivatives of the compounds listed in Table 4 were subjected to PK studies as described in the following.
Female Göttingen mini-pigs obtained from Ellegaard Göttingen Minipigs (Dalmose, Denmark) at approximately 6 months of age and weighing approximately 17 kg were used in the studies. […] Additional blood samples were collected for the derivatives of Examples 2, 4, 7, 8, and 9 at the following time points: 5, 12, 22, 28 and 144 hours. The blood samples were collected into test tubes containing EDTA buffer for stabilisation and kept on ice for max. 20 minutes before centrifugation. The centrifugation procedure to separate plasma was: 4° C., approx. 2500 g for 10 minutes. Plasma was collected and immediately transferred to Micronic tubes stored at −20° C. until assayed.
Plasma was pipetted into Micronic tubes on dry ice, and kept at −20° C. until analysed for plasma concentration of the respective CCK derivative using LC-MS. The plasma samples (including standard curve samples used for quantitation of unknowns and prepared from blank plasma spiked with CCK compound at a concentration range of 0.5-2000 nM for the compounds of Examples 3, 5, 6 or 0.5-1000 nM for the remaining Example compounds) were protein precipitated using three volumes of methanol and centrifuged (16000×g, 4° C., 20 min). The supernatants were injected into the chromatographic system (TurboFlow Transcend 1250 & 10 valve VIM, Thermo Fisher Scientific) which consisted of an initial Turboflow Cyclone purification column 0.5×50 mm (Thermo Fischer Scientific) and an eluting Aeris peptide 3.6 μm XB—C18 column 2.1×50 mm (Phenomenex) kept at 60° C.
The CCK derivatives of Examples 2-9 were eluted using LC-MS method I: A chromatographic gradient system with mobile phases consisting of water with 0.1 v/v % formic acid (mobile phase A) and water/acetonitrile 10/90 v/v with 0.1 v/v % formic acid (mobile phase B). The 2 minute gradient started at 60% mobile phase B and ended at 100% mobile phase B with a flow of 0.4 mL/min. The CCK derivatives were detected and quantified after on-line infusion of the LC flow to the LTQ OrbiTrap Discovery mass spectrometer (Thermo Fischer Scientific) equipped with an electrospray interface operated in negative mode, ESI− (Sheath gas flow rate at 40, Aux gas flow rate at 30, Sweep gas flow rate at 2, Spray voltage at 2.8 kV, Capillary temp. at 275° C., S-lens RF level at −125 and Heater temp. at 325° C.).
The remaining Example compounds were eluted using LC-MS method II: A chromatographic gradient system with mobile phases consisting of water with 1 v/v % formic acid (mobile phase A) and water/acetonitrile 10/90 v/v with 1 v/v % formic acid (mobile phase B). The initial 0.25 minute gradient started at 0% mobile phase B and ended at 70% mobile phase B followed by the second 2.2 minute gradient started at 70% mobile phase B and ended at 75% mobile phase B with a flow of 0.4 mL/min. These CCK derivatives were detected and quantified as described above except that the Spray voltage was 4.0 kV.
Individual plasma concentration-time profiles were analysed by a non-compartmental model in Phoenix v. 6.3 (Pharsight Inc., Mountain View, Calif., USA).

Series [2] in a line: Chemical stability in 50 mM phosphate buffer pH 7.4, RP-UPLC. The format is physicochemical. How it is done:
The purpose of this assay is to assess the chemical stability of the derivatives of the invention in aqueous solutions. The chemical stability was investigated by RP-UPLC separation and UV detection.
Lyophilised samples of the derivative of Example 3 were dissolved in a 50 mM sodium phosphate buffer pH 7.4 containing 70 mM NaCl and 0.05 v/v % polysorbate 80, at a concentration of 1 mg/ml of the derivative (for the Example 3 derivative 1 mg/ml equates 0.54 mM). If necessary, pH was adjusted to 7.4. […]
RP-UPLC analysis was performed using a Waters Acquity system with the following parameters:
The following UPLC gradient was used: […]
Purity of a compound is defined as the area percentage of the compound peak in relation to the total area of all integrated peaks in the chromatogram and is calculated by the software of the apparatus. Absolute purity loss (in percentage points, pp) is determined as the difference in purity between the start sample and the sample incubated for a certain time at a certain temperature. Relative purity loss (in %) is the ratio of absolute purity loss to the purity determined in the start sample.

Series [3] in a line: Plasma exposure after the last dose in DIO mini-pigs. The conditions noted are these: for AUC(0-t): Göttingen, minipig, plasma, sc, read-out: AUCexposure (0-24 h) after last dose. The class given is in vivo, Göttingen mini-pigs. The method, then:
The CCK derivative was dissolved in the following buffer: 8 mM phosphate, 184 mM propylene glycol, 58 mM phenol, pH 7.4 concentrations ranging from 2000-10000 nmol/mL corresponding to dose volumes ranging from 0.00075-0.001 mL/kg. Liraglutide was dissolved in 8 mM phosphate, 184 mM propylenglycol, 58 mM phenol, pH 8.15 (1600 nmol/mL), dose volume was 0.001 mL/kg and this formulation also served as a vehicle for all 3 treatment groups. Animals were dosed subcutaneously once daily with vehicle, CCK derivative, liraglutide, or liraglutide in combination with the CCK derivative (given as two separate injections in each side of the neck). After the last dose blood samples were obtained in EDTA coated tubes at selected time points for up to 480 hours after dosing. Blood was sampled through central-venous catheters implanted under general anaesthesia after 11 weeks of treatment.
The resulting plasma was pipetted into Micronic tubes on dry ice, and kept at −20° C. until analysed for plasma exposure of liraglutide and the CCK derivative. Plasma content of the CCK derivative was measured using LC-MS method II, as described in Example 93. Plasma content of liraglutide was measured using LOCI (Luminescence Oxygen Channeling Immunoasssay). LOCI is generally described for the determination of insulin by Poulsen and Jensen in Journal of Biomolecular Screening 2007, vol. 12, p. 240-247. The donor beads were coated with streptavidin, while acceptor beads were conjugated with a monoclonal antibody recognising a C-terminal epitope of the peptide. Another monoclonal antibody, specific for the N-terminus, was biotinylated. The three reactants were combined with the analyte and formed a two-sited immuno-complex. Illumination of the complex released singlet oxygen atoms from the donor beads, which were channelled into the acceptor beads and triggered chemiluminescence which was measured in an Envision plate reader. The amount of light was proportional to the concentration of the compound.

Each structure is given as a SMILES string. Where two headings read alike, the source gives them in different places. Starred links: 1 amine or outer side, 2 acyl side, 3 side chain; linkers in the order of their positions; H or OH if unused. Non-standard residues stand in square brackets, D forms with d. Residues, ends and D or L forms follow the SMILES beside them. *: point of attachment. Phe(4-CH2SO3H) = N[C@@H](Cc1ccc(CS(=O)(=O)O)cc1)C(=O)O; C20 diacid = O=C(O)CCCCCCCCCCCCCCCCCCC(=O)*; sY = N[C@@H](Cc1ccc(OS(=O)(=O)O)cc1)C(=O)O; C18 diacid = O=C(O)CCCCCCCCCCCCCCCCC(=O)*; γGlu = O=C(O)[C@H](CCC(=O)[*:2])N[*:1]; 1Nal = N[C@@H](Cc1cccc2ccccc12)C(=O)O; C14 diacid = O=C(O)CCCCCCCCCCCCC(=O)*; NMeF = CN[C@@H](Cc1ccccc1)C(=O)O; dNMeD = CN[C@H](CC(=O)O)C(=O)O; Nle = CCCC[C@H](N)C(=O)O; AEEA = NCCOCCOCC(=O)O

Experimental findings from patent publication US20170008928A1, “NOVEL PEPTIDES AND PEPTIDE DERIVATIVES AND USES THEREOF” (Novo Nordisk A/S, priority 2015, published 2017) are described below.

By half-life is commonly meant the time needed for the level to fall by half in the phase considered.

Turning to `CCCC[C@H](NC(=O)[C@H](Cc1c[nH]c2ccccc12)NC(=O)CNC(=O)[C@H](CC(C)C)NC(=O)[C@H](Cc1ccc(CS(=O)(=O)O)cc1)NC(=O)[C@H](CC(=O)O)NC(=O)COCCOCCNC(=O)COCCOCCNC(=O)CC[C@H](NC(=O)CCCCCCCCCCCCCCCCCCC(=O)O)C(=O)O)C(=O)N(C)[C@H](CC(=O)O)C(=O)N(C)[C@@H](Cc1ccccc1)C(N)=O` [Example 35, 2-[2-[2-[[2-[2-[2-[[(4S)-4-Carboxy-4-(19-carboxynonadecanoylamino)butanoyl]amino]ethoxy]ethoxy]acetyl]amino]ethoxy]ethoxy]acetyl-Asp-Phe(4-sulfomethyl)-Leu-Gly-Trp-Nle-DMeAsp-MePhe-amide] ({C20 diacid-γGlu-AEEA-AEEA}-D[Phe(4-CH2SO3H)]LGW[Nle][dNMeD][NMeF]-NH2), the “Plasma terminal half-life (T½)” value in series [1] came to 153 h.
Turning to `CCCC[C@H](NC(=O)[C@H](Cc1c[nH]c2ccccc12)NC(=O)CNC(=O)[C@H](CC(C)C)NC(=O)[C@H](Cc1ccc(OS(=O)(=O)O)cc1)NC(=O)[C@H](CC(=O)O)NC(=O)[C@H](CO)NC(=O)[C@H](CO)NC(=O)CNC(=O)[C@H](CO)NC(=O)[C@H](CO)NC(=O)CNC(=O)CCCCCCCCCCCCCCCCC(=O)O)C(=O)N(C)[C@H](CC(=O)O)C(=O)N(C)[C@@H](Cc1ccccc1)C(N)=O` [Example 29, 17-Carboxyheptadecanoyl-Gly-Ser-Ser-Gly-Ser-Ser-Asp-sTyr-Leu-Gly-Trp-Nle-DMeAsp-MePhe-amide] ({C18 diacid}-GSSGSSD[sY]LGW[Nle][dNMeD][NMeF]-NH2), the half-life in series [1] (minipig, plasma, iv, read-out: Plasma terminal half-life (T½) (converted)) was 119 h.
With `CCCC[C@H](NC(=O)[C@H](Cc1ccc(OS(=O)(=O)O)cc1)NC(=O)[C@H](CC(=O)O)NC(=O)COCCOCCNC(=O)COCCOCCNC(=O)CC[C@H](NC(=O)CCCCCCCCCCCCCCCCC(=O)O)C(=O)O)C(=O)NCC(=O)N[C@@H](Cc1c[nH]c2ccccc12)C(=O)N[C@@H](CCCC)C(=O)N(C)[C@H](CC(=O)O)C(=O)N[C@@H](Cc1cccc2ccccc12)C(N)=O` [Example 2, 2-[2-[2-[[2-[2-[2-[[(4S)-4-Carboxy-4-(17-carboxyheptadecanoylamino)butanoyl]amino]ethoxy]ethoxy]acetyl]amino]ethoxy]ethoxy]acetyl-Asp-sTyr-Nle-Gly-Trp-Nle-DMeAsp-1Nal-amide] ({C18 diacid-γGlu-AEEA-AEEA}-D[sY][Nle]GW[Nle][dNMeD][1Nal]-NH2), in series [1], the “Plasma terminal half-life (T½)” value is reported as 140 h.
Turning to `CCCC[C@H](NC(=O)[C@H](Cc1ccc(CS(=O)(=O)O)cc1)NC(=O)[C@H](CC(=O)O)NC(=O)COCCOCCNC(=O)COCCOCCNC(=O)CC[C@H](NC(=O)CCCCCCCCCCCCCCCCC(=O)O)C(=O)O)C(=O)NCC(=O)N[C@@H](Cc1c[nH]c2ccccc12)C(=O)N[C@@H](CCCC)C(=O)N(C)[C@H](CC(=O)O)C(=O)N(C)[C@@H](Cc1ccccc1)C(N)=O` [Example 3, 2-[2-[2-[[2-[2-[2-[[(4S)-4-Carboxy-4-(17-carboxyheptadecanoylamino)butanoyl]amino]ethoxy]ethoxy]acetyl]amino]ethoxy]ethoxy]acetyl-Asp-Phe(4-sulfomethyl)-Nle-Gly-Trp-Nle-DMeAsp-MePhe-amide] ({C18 diacid-γGlu-AEEA-AEEA}-D[Phe(4-CH2SO3H)][Nle]GW[Nle][dNMeD][NMeF]-NH2), the “chemical stability, overall” value in series [2] (all three temperatures tested (5, 25, 37° C.), up to at least 6 weeks) is on record as “very stable”. Moreover, in series [2] (same buffer, 25° C., three days, 25 μM, 100 μM and 500 μM), the “short term chemical stability” value is “virtually no degradation”. In addition, the AUC(0-t) was 27.1 µM·h in series [3] (CCK derivative high dose group (10 nmol/kg)) and 4.2 µM·h in series [3] (CCK derivative low dose group). Besides, the “AUCexposure (0-24 h) after last dose, CCK derivative” value in series [3] (combination group, CCK derivative […] on top of liraglutide) is “derivative: 3332000 pM*h”.
For `CCCC[C@H](NC(=O)[C@H](Cc1c[nH]c2ccccc12)NC(=O)CNC(=O)[C@H](CC(C)C)NC(=O)[C@H](Cc1ccc(CS(=O)(=O)O)cc1)NC(=O)[C@H](CC(=O)O)NC(=O)COCCOCCNC(=O)COCCOCCNC(=O)CC[C@H](NC(=O)CCCCCCCCCCCCC(=O)O)C(=O)O)C(=O)N(C)[C@H](CC(=O)O)C(=O)N(C)[C@@H](Cc1ccccc1)C(N)=O` [Example 34, 2-[2-[2-[[2-[2-[2-[[(4S)-4-Carboxy-4-(13-carboxytridecanoylamino)butanoyl]amino]ethoxy]ethoxy]acetyl]amino]ethoxy]ethoxy]acetyl-Asp-Phe(4-sulfomethyl)-Leu-Gly-Trp-Nle-DMeAsp-MePhe-amide] ({C14 diacid-γGlu-AEEA-AEEA}-D[Phe(4-CH2SO3H)]LGW[Nle][dNMeD][NMeF]-NH2), in series [1], the “Plasma terminal half-life (T½)” value worked out at 2 h.
